Earlier results in patent publication US6562757B1, “Plant-protection treatment of plants and compositions which can be used for this purpose” (Cerexagri S.A., priority 1999, dated 2003).

Details: pH 7

Structure (SMILES)	amount of soluble aqueous copper (Cu2+(aq)) released [mg/L]
[Cl-].[Cu+2].[Cu+2].[OH-].[OH-].[OH-] [copper oxychloride]	1 to 10
[Cu+2].[OH-].[OH-] [copper hydroxide]	1 to 10
